{"source": "patent US20070059299A1", "about": "“S-adenosyl methionine decarboxylase inhibition for the treatment of a herpes simplex virus infection” (Institut National de la Sante et de la Recherche Medicale …, priority 2002, published 2007)", "key": {"[1]": {"system": "HSV-1 proteins, mRNA and DNA", "experiment": "Levels of viral proteins (Western blot), mRNA and DNA (slot blot) in infected HEp2 cells", "type": "cell-based", "method": "Total RNA and DNA from control mock-infected and infected HEp2 cells were purified using Qiagen RNA/DNA kit. RNA were submitted to DNAse/RNAse free digestion (1.5 unit/μg RNA) and DNA were submitted to RNAse A digestion (10 units/μg). Quantitation of SAMDC mRNA, of viral mRNAs and viral DNA present in each sample was determined by slot blot analysis using the 1250 bp PstI/PvuII fragment of pSAMr1 plasmid (Pajunen et al., 1988). The 746 bp SalI-EcoNI fragment of pSG28 and the 1308 bp MluI fragment of pSG124 plasmids (Goldin et al., 1981) were labelled with [^32P] and used as probes to detect the immediate early ICP27 and the early UL42 mRNAs respectively. Us11 late mRNA was detected with [^32P]-labelled probe composed of the 230 bp XhoI fragment of pHSV-Us12 plasmid (Diaz et al., 1996). Viral DNA was detected using the ICP27 specific DNA probe.\nMock-infected and HSV-1-infected HEp2 cells were washed three times with ice cold phosphate-buffered saline (PBS) (130 mM NaCl, 4 mM Na2HPO4.2H2O, 1.5 mM KH2PO4), scrapped into PBS, and collected by centrifugation at 500×g. Cells were resuspended in Laemmli buffer (Laemmli, 1970). Proteins were resolved by polyacrylamide gel electrophoresis and transferred by electroblotting onto a polyvinylidene difluoride membrane (Immobilon-P; Millipore). Viral proteins were analysed by Western blots (10 μg aliquots) using a 50 fold dilution of either a rabbit polyclonal anti-ICP27 antibody, or a rabbit polyclonal anti-Us11 antibody (Diaz et al., 1993), or a mouse monoclonal anti-UL42 antibody diluted 50 fold.\nCells were pre-treated with 10 to 200 μM of MGBG, then infected with HSV-1 in the presence of the same concentrations of MGBG. Proteins, RNA and DNA were extracted from cells infected for 24 h. Viral proteins were detected by Western blot using specific antibodies, whereas viral mRNA and DNA levels were assayed by slot blot analysis."}, "[2]": {"system": "foscarnet-resistant reference strain TP 2.5", "experiment": "Antiviral susceptibility testing by ELISA on HEp-2 cells, strain TP 2.5", "type": "cell-based, HSV 1", "details": "median of at least three assays, drugs diluted in μM, read-out: Susceptibility of strain TP2.5 (concentration causing 50% inhibition of viral replication, IC50), median", "protocol": "(§1) Three HSV 1 reference strains were tested : SC16 (acyclovir-susceptible reference strain; (Hill et al., 1975)), DM21 (acyclovir-resistant reference strain derived from SC16; (Efstathiou et al., 1989)) and TP 2.5 (foscarnet-resistant reference strain derived from SC16; (Larder and Darby, 1985)). Antiviral assays were performed in duplicate on HEp-2 cells seeded in 96 wells microplates. Dilutions of virus and drugs were prepared in E-MEM without FCS. Cells were first treated for 24 hours with MGBG using a series of 6 twofold serial dilutions from 12.5 to 400 μM. Infection was then achieved with 5 tenfold dilutions of cell-associated virus (10^−1 to 10^−5). Each dilution was incubated with a series of 6 concentrations of each antiviral drug (from 12.5 to 400 μM in twofold dilutions for MGBG, from 0.16 to 500 μM in fivefold dilutions for acyclovir and from 31 to 1000 μM in twofold dilutions for foscarnet). […] After incubation at 36° C. with 5% CO2 for 24 hours post-infection, medium was replaced with freshly prepared dilutions of MGBG. Viral multiplication was checked 24 hours afterwards by an ELISA (Morfin et al., 1999), using a rabbit monoclonal anti-HSV 1 antibody (BO 114, Dako) and a protein A peroxidase-conjugated (BioRad). The substrate, 2,2′-azino-di(3-ethyl-benzthiazoline) sulfonic acid (ABTS) diluted in ABTS buffer (Boehringer, Mannheim), was added to each well. After 30 min at room temperature, the plates were briefly agitated and optical densities were read at 405 nm with a multichannel spectrophotomoter (Titertek-Multiskan). Optical density values were used with the Biolise program (Life Sciences International) to calculate the concentration of the drug causing a 50% inhibition of viral replication (IC50) by logistic regression analysis.\n(§2) The capacity of MGBG to preclude infection of three HSV-1 acyclovir and/or foscarnet resistant strains was tested. […] The ED values were determined."}, "HEp2 cells": {"system": "HEp2 cells", "experiment": "Estimation of growth and viability of uninfected HEp2 cells (trypan blue counting)", "type": "cell-based", "protocol": "Uninfected HEp2 cells were grown in the absence (control) and the presence of 10 to 500 μM of MGBG for 24 h, 30 h and 48 h. Every 24 h, medium was replaced with fresh medium containing the same concentration of MGBG. At the time of harvesting, culture medium was collected from wells of untreated control cells and treated cells. Then cells from the monolayers were gently trypsinized and added to the corresponding previous cell culture medium. Total cells were collected by gentle centrifugation at 500×g and were resuspended in PBS containing 0.2% trypan blue. For each experiment, total cells, living cells and dead cells were counted.\nThe effect of MGBG on cell growth and viability was investigated. HEp2 cells were incubated in FCS free medium, in the presence of 10 μM to 500 μM of MGBG for 24 h, 30 h and 48 h. After harvesting, total cells, living cells and dead cells were counted."}, "[3]": {"system": "acyclovir-susceptible reference strain SC16", "experiment": "Antiviral susceptibility testing by ELISA on HEp-2 cells, strain SC16", "type": "cell-based, HSV 1", "details": "HEp-2, read-out: Susceptibility of strain SC16 (concentration causing 50% inhibition of viral replication, IC50), median", "protocol": "as §1, §2"}}}
{"smiles": "CC(C=NNC(=N)N)=NNC(=N)N", "note": "[MGBG, methylglyoxal bis(guanylhydrazone)]", "values": [{"measurement": "viral replication", "setting": "[1]; 6 h pre-treatment with 100 μM MGBG, MGBG alone, 24 h p.i.", "value": "totally inhibited"}, {"measurement": "viral DNA level, viral mRNA and proteins", "setting": "[1]; cells pre-treated with 10 to 200 μM MGBG, infected 24 h, dose dependant", "value": "significantly decreased"}, {"measurement": "IC50", "setting": "[2]", "value": 82, "unit": "µM"}, {"measurement": "percentage of dead cells of total cells", "setting": "HEp2 cells; 25 μM MGBG, 48 h", "value": 10, "unit": "%"}, {"measurement": "percentage of dead cells of total cells", "setting": "HEp2 cells; 500 μM MGBG, 24 h", "value": 9, "unit": "%"}, {"measurement": "percentage of dead cells of total cells", "setting": "HEp2 cells; 500 μM MGBG, 30 h", "value": 24, "unit": "%"}, {"measurement": "cell growth", "setting": "HEp2 cells; 500 μM MGBG, FCS free", "value": "did not grow anymore"}, {"measurement": "growth rate of cells compared to control cells grown without MGBG", "setting": "HEp2 cells; 24 h and 30 h, less than 200 μM MGBG, FCS free", "value": "no drastic difference"}, {"measurement": "percentage of dead cells of total cells", "setting": "HEp2 cells; less than 500 μM MGBG for 24 h and 30 h, less than 25 μM MGBG for 48 h", "value": "≤ 5", "unit": "%"}, {"measurement": "IC50", "setting": "[3]", "value": 103, "unit": "µM"}]}
